Reference: patent publication US20220132854A1, “STABLE LIQUID COMPOSITIONS AND METHODS OF USING THE SAME” (priority 2019, published 2022)

Assay: Storage stability of liquid compositions, 8 weeks at 40° C., loss by HPLC
Format: physicochemical
Details: same inert ingredients as Composition #7 of Table 3; aged 8 weeks at 40° C.
Description: To test stability, the compositions were sealed in a container and stored for 8 weeks at 40° C. The relative percentage loss of halosulfuron-methyl was calculated using high performance liquid chromatography (HPLC). The samples were extracted with solvents and then analyzed with reverse phase HPLC equipped with UV detector. The response from the detector are peak areas (mAu*s). The peak areas were correlated with percentage active ingredients through a standard calibration curve. The percentage of pesticide was calculated through the calibration curve. Chemically stable compositions are those compositions that had less than 5% (w/w) relative loss of halosulfuron-methyl after 8 weeks of storage at 40° C.
The compositions described herein lose 5% (w/w) or less of the pesticide after storing the liquid composition for 8 weeks at 40° C. in a sealed container. Alternatively, the compositions described herein comprise at least 95% (w/w) of the pesticide after storing the liquid composition for 8 weeks at 40° C. in a sealed container. The percent loss is measured by quantitative chromatography, such as High Performance Liquid Chromatography (HPLC).

## COC(=O)c1sccc1S(=O)(=O)NC(=O)Nc1nc(C)nc(OC)n1 [Thifensulfuron-methyl, thifensulfuron-methyl]
  relative loss of thifensulfuron-methyl: less than 5 % w/w
